From patent publication US20260224496A1, “HIGHLY POROUS GAS-BLOWN HYDROGELS FOR DIRECT CELL ENCAPSULATION WITH HIGH CELL VIABILITY” (Syracuse University, priority 2023, published 2026)

Tests used:
3T3 mouse fibroblasts = assay: IC50 values of foaming components, resazurin assay (Alamar Blue); type: cell-based; conditions: 20-minute exposure
Protocol: Cells were cultured in DMEM with 10% fetal bovine serum (FBS) and 1% penicillin-streptomycin (pen-strep) at 37° C. with 5% CO2. Cells were trypsinized and seeded at a density of 5,000 cells per well in a 96-well plate. […] After a 20-minute exposure, solutions were removed, and cell viability was measured compared to an untreated control using a resazurin assay (Alamar Blue) read by a plate reader. Cell viability was calculated as: […]
The blank was a well with media only and no cells.

in vitro = assay: in vitro
Protocol: (§1) Using IC50 values as a concentration ceiling, the cytocompatibility of citric acid, NaHCO3, and Irgacure 2959 was measured with adipose-derived MSCs at concentrations of 0.25, 1, and 0.2% (w/v) in DMEM, respectively. MSCs were seeded in 24 well plates at 2,500 cells per well. […] After incubation, cells were treated with a resazurin assay for 2 hours for cytocompatibility measurements or with Live/Dead assay stains and imaging for morphology analysis.

adipose-derived MSCs = assay: in vitro
Protocol: as §1

With `O=C(O)CC(O)(CC(=O)O)C(=O)O` [Citric acid, citric acid] the IC50 (3T3 mouse fibroblasts) was 0.23 wt %, the viability at 1 h, 0.25 % (w/v) (in vitro) was 51% and the viability at 24 h, 0.25 % (w/v) (in vitro) was 21%.

With `CC(C)(O)C(=O)c1ccc(OCCO)cc1` [Irgacure 2959] the “MSC viability after 24-hour recovery” value (adipose-derived MSCs) was 99% and the “MSC viability after 1 hour of exposure” value (adipose-derived MSCs) was 99%.

In the case of `O=C([O-])O.[Na+]` [NaHCO3, sodium bicarbonate], the “MSC viability after 24-hour recovery” value (adipose-derived MSCs; citric acid 0.25%, Irgacure 2959 0.2%, NaHCO3 1% (w/v) in DMEM, 24-hour recovery) is reported as 95% and the “MSC viability after 1 hour of exposure” value (adipose-derived MSCs; citric acid 0.25%, Irgacure 2959 0.2%, NaHCO3 1% (w/v) in DMEM, 1 hour exposure) is reported as 98%.
